# Measurements published in the NIST ThermoML archive (doi:10.1016/j.tca.2012.05.023).
# Numbers after ± are expanded uncertainties.
# Experiment: molar heat capacity at constant pressure
# Details: 101.33 kPa, Crystal, Vacuum adiabatic calorimetry
smiles,measurement,setting,value
O=C([O-])c1cnccn1.O=C([O-])c1cnccn1.O=C([O-])c1cnccn1.[Cr+3] [chromium(III) pyrazine-2-carboxylate],molar heat capacity at constant pressure,235 K,359.23 ± 2.2 J/K/mol
same,molar heat capacity at constant pressure,235.75 K,360.47 ± 2.2 J/K/mol
same,molar heat capacity at constant pressure,238.84 K,363.97 ± 2.2 J/K/mol
same,molar heat capacity at constant pressure,240 K,365.49 ± 2.2 J/K/mol
same,molar heat capacity at constant pressure,242.01 K,368.73 ± 2.2 J/K/mol
same,molar heat capacity at constant pressure,245 K,371.73 ± 2.3 J/K/mol
same,molar heat capacity at constant pressure,245.86 K,373.07 ± 2.3 J/K/mol
same,molar heat capacity at constant pressure,249.57 K,377.69 ± 2.3 J/K/mol
same,molar heat capacity at constant pressure,250 K,377.95 ± 2.3 J/K/mol
same,molar heat capacity at constant pressure,252.6 K,381.55 ± 2.3 J/K/mol
same,molar heat capacity at constant pressure,255 K,384.15 ± 2.3 J/K/mol
same,molar heat capacity at constant pressure,255.7 K,385.19 ± 2.4 J/K/mol
same,molar heat capacity at constant pressure,258.73 K,388.65 ± 2.4 J/K/mol
same,molar heat capacity at constant pressure,260 K,390.33 ± 2.4 J/K/mol
same,molar heat capacity at constant pressure,261.82 K,392.4 ± 2.4 J/K/mol
same,molar heat capacity at constant pressure,264.85 K,396.6 ± 2.4 J/K/mol
same,molar heat capacity at constant pressure,265 K,396.49 ± 2.4 J/K/mol
same,molar heat capacity at constant pressure,267.86 K,400.48 ± 2.4 J/K/mol
same,molar heat capacity at constant pressure,270 K,402.62 ± 2.5 J/K/mol
same,molar heat capacity at constant pressure,270.92 K,403.75 ± 2.5 J/K/mol
same,molar heat capacity at constant pressure,273.93 K,407.18 ± 2.5 J/K/mol
same,molar heat capacity at constant pressure,275 K,408.73 ± 2.5 J/K/mol
same,molar heat capacity at constant pressure,276.89 K,410.85 ± 2.5 J/K/mol
same,molar heat capacity at constant pressure,279.85 K,414.48 ± 2.5 J/K/mol
same,molar heat capacity at constant pressure,280 K,414.81 ± 2.5 J/K/mol
same,molar heat capacity at constant pressure,282.87 K,418.25 ± 2.5 J/K/mol
same,molar heat capacity at constant pressure,285 K,420.87 ± 2.6 J/K/mol
same,molar heat capacity at constant pressure,285.83 K,421.97 ± 2.6 J/K/mol
same,molar heat capacity at constant pressure,288.79 K,425.74 ± 2.6 J/K/mol
same,molar heat capacity at constant pressure,290 K,426.91 ± 2.6 J/K/mol
same,molar heat capacity at constant pressure,291.89 K,428.76 ± 2.6 J/K/mol
same,molar heat capacity at constant pressure,294.92 K,432.73 ± 2.6 J/K/mol
same,molar heat capacity at constant pressure,295 K,432.92 ± 2.6 J/K/mol
same,molar heat capacity at constant pressure,297.94 K,436.5 ± 2.7 J/K/mol
same,molar heat capacity at constant pressure,298.15 K,436.69 ± 2.7 J/K/mol
same,molar heat capacity at constant pressure,300 K,438.9 ± 2.7 J/K/mol
same,molar heat capacity at constant pressure,300.28 K,439.48 ± 2.7 J/K/mol
same,molar heat capacity at constant pressure,302.83 K,442.7 ± 2.7 J/K/mol
same,molar heat capacity at constant pressure,305 K,444.86 ± 2.7 J/K/mol
same,molar heat capacity at constant pressure,305.99 K,446.12 ± 2.7 J/K/mol
same,molar heat capacity at constant pressure,309.09 K,450.09 ± 2.7 J/K/mol
same,molar heat capacity at constant pressure,310 K,450.79 ± 2.7 J/K/mol
same,molar heat capacity at constant pressure,312.18 K,454.16 ± 2.8 J/K/mol
same,molar heat capacity at constant pressure,315 K,456.7 ± 2.8 J/K/mol
same,molar heat capacity at constant pressure,315.35 K,457.58 ± 2.8 J/K/mol
same,molar heat capacity at constant pressure,318.38 K,461.21 ± 2.8 J/K/mol
same,molar heat capacity at constant pressure,320 K,462.57 ± 2.8 J/K/mol
same,molar heat capacity at constant pressure,321.54 K,464.38 ± 2.8 J/K/mol
same,molar heat capacity at constant pressure,324.64 K,468.15 ± 2.9 J/K/mol
same,molar heat capacity at constant pressure,325 K,468.42 ± 2.9 J/K/mol
same,molar heat capacity at constant pressure,327.67 K,471.32 ± 2.9 J/K/mol
same,molar heat capacity at constant pressure,330 K,474.25 ± 2.9 J/K/mol
same,molar heat capacity at constant pressure,330.76 K,475.09 ± 2.9 J/K/mol
same,molar heat capacity at constant pressure,333.79 K,478.57 ± 2.9 J/K/mol
same,molar heat capacity at constant pressure,335 K,480.04 ± 2.9 J/K/mol
same,molar heat capacity at constant pressure,336.88 K,481.84 ± 2.9 J/K/mol
same,molar heat capacity at constant pressure,339.91 K,485.31 ± 3 J/K/mol
same,molar heat capacity at constant pressure,340 K,485.8 ± 3 J/K/mol
same,molar heat capacity at constant pressure,343.01 K,488.64 ± 3 J/K/mol
same,molar heat capacity at constant pressure,345 K,491.54 ± 3 J/K/mol
same,molar heat capacity at constant pressure,345.97 K,491.76 ± 3 J/K/mol
same,molar heat capacity at constant pressure,349.05 K,495.84 ± 3 J/K/mol
same,molar heat capacity at constant pressure,350 K,497.25 ± 3 J/K/mol
same,molar heat capacity at constant pressure,352.03 K,499.11 ± 3 J/K/mol
same,molar heat capacity at constant pressure,355 K,502.92 ± 3.1 J/K/mol
same,molar heat capacity at constant pressure,355.1 K,502.61 ± 3.1 J/K/mol
same,molar heat capacity at constant pressure,358.14 K,506.45 ± 3.1 J/K/mol
same,molar heat capacity at constant pressure,360 K,508.57 ± 3.1 J/K/mol
same,molar heat capacity at constant pressure,361.31 K,510.02 ± 3.1 J/K/mol
same,molar heat capacity at constant pressure,364.47 K,513.54 ± 3.1 J/K/mol
same,molar heat capacity at constant pressure,365 K,514.18 ± 3.1 J/K/mol
same,molar heat capacity at constant pressure,367.57 K,517.31 ± 3.1 J/K/mol
same,molar heat capacity at constant pressure,370 K,519.77 ± 3.2 J/K/mol
same,molar heat capacity at constant pressure,370.74 K,520.43 ± 3.2 J/K/mol
same,molar heat capacity at constant pressure,373.88 K,524.09 ± 3.2 J/K/mol
same,molar heat capacity at constant pressure,375 K,525.32 ± 3.2 J/K/mol
same,molar heat capacity at constant pressure,377.03 K,527.59 ± 3.2 J/K/mol
same,molar heat capacity at constant pressure,380 K,530.85 ± 3.2 J/K/mol
same,molar heat capacity at constant pressure,380.17 K,530.85 ± 3.2 J/K/mol
same,molar heat capacity at constant pressure,383.23 K,534.71 ± 3.2 J/K/mol
same,molar heat capacity at constant pressure,385 K,536.34 ± 3.3 J/K/mol
same,molar heat capacity at constant pressure,386.16 K,537.95 ± 3.3 J/K/mol
same,molar heat capacity at constant pressure,389.19 K,541.27 ± 3.3 J/K/mol
same,molar heat capacity at constant pressure,390 K,541.8 ± 3.3 J/K/mol
same,molar heat capacity at constant pressure,392.45 K,544.56 ± 3.3 J/K/mol
same,molar heat capacity at constant pressure,395 K,547.22 ± 3.3 J/K/mol
same,molar heat capacity at constant pressure,395.47 K,547.81 ± 3.3 J/K/mol
same,molar heat capacity at constant pressure,400 K,552.62 ± 3.4 J/K/mol
